Results as given in PMC12203311, “Design, synthesis, in silico and in vitro evaluation of pyrrole–indole hybrids as dual tubulin and aromatase inhibitors with potent anticancer activities” (RSC Advances, 2025).

Tests used:
CCRF-CEM = assay: NCI60 five-dose screen; format: cell-based; conditions: Homo sapiens, leukemia
HL-60 (TB) = assay: NCI60 five-dose screen; format: cell-based; conditions: Homo sapiens, leukemia
MOLT-4 = assay: NCI60 five-dose screen; format: cell-based; conditions: Homo sapiens, MOLT-4, leukemia
RPMI-8226 = assay: NCI60 five-dose screen; format: cell-based; conditions: Homo sapiens, RPMI-8226, leukemia
NCI-H322M = assay: NCI60 five-dose screen; format: cell-based; conditions: Homo sapiens, NSC lung cancer
NCI-H522 = assay: NCI60 five-dose screen; format: cell-based; conditions: Homo sapiens, NCI-H522, NSC lung cancer
HCC-2998 = assay: NCI60 five-dose screen; format: cell-based; conditions: Homo sapiens, HCC-2998, colon cancer
KM12 = assay: NCI60 five-dose screen; format: cell-based; conditions: Homo sapiens, KM12, colon cancer
SW-620 = assay: NCI60 five-dose screen; format: cell-based; conditions: Homo sapiens, SW-620, colon cancer
SF-268 = assay: NCI60 five-dose screen; format: cell-based; conditions: Homo sapiens, SF-268, CNS cancer
SF-295 = assay: NCI60 five-dose screen; format: cell-based; conditions: Homo sapiens, SF-295, CNS cancer
SNB-19 = assay: NCI60 five-dose screen; format: cell-based; conditions: Homo sapiens, SNB-19, CNS cancer
U251 = assay: NCI60 five-dose screen; format: cell-based; conditions: Homo sapiens, U-251, U251, CNS cancer
MALME-3M = assay: NCI60 five-dose screen; format: cell-based; conditions: Homo sapiens, melanoma
SK-MEL-28 = assay: NCI60 five-dose screen; format: cell-based; conditions: Homo sapiens, SK-MEL-28, melanoma
UACC-257 = assay: NCI60 five-dose screen; format: cell-based; conditions: Homo sapiens, UACC-257, melanoma
OVCAR-5 = assay: NCI60 five-dose screen; format: cell-based; conditions: Homo sapiens, OVCAR-5, ovarian cancer
OVCAR-8 = assay: NCI60 five-dose screen; format: cell-based; conditions: Homo sapiens, OVCAR-8, ovarian cancer
NCI/ADR-RES = assay: NCI60 five-dose screen; format: cell-based, human; conditions: Homo sapiens, ovarian cancer
SK-OV-3 = assay: NCI60 five-dose screen; format: cell-based; conditions: Homo sapiens, SK-OV-3, ovarian cancer
SN12C = assay: NCI60 five-dose screen; format: cell-based; conditions: Homo sapiens, renal cancer
TK-10 = assay: NCI60 five-dose screen; format: cell-based; conditions: Homo sapiens, TK-10, renal cancer
MDA-MB-231/ATCC = assay: NCI60 five-dose screen; format: cell-based; conditions: Homo sapiens, breast cancer
HS 578T = assay: NCI60 five-dose screen; format: cell-based; conditions: Homo sapiens, breast cancer
T-47D = assay: NCI60 five-dose screen; format: cell-based; conditions: Homo sapiens, T47D, breast cancer
MDA-MB-468 = assay: NCI60 five-dose screen; format: cell-based; conditions: Homo sapiens, MDA-MB-468, breast cancer
Human CYP19 (aromatase) = biological target: T1, Human CYP19 (aromatase) (Homo sapiens, UniProt P11511); assay: Aromatase inhibition assay (DBF fluorometric substrate); format: biochemical; conditions: active defined as IC50 < 12.5 µM
T1 construct: purchased GENTEST, Woburn, MA 456260; host or cells: baculovirus/insect cells
T1 sequence (P11511 1-503): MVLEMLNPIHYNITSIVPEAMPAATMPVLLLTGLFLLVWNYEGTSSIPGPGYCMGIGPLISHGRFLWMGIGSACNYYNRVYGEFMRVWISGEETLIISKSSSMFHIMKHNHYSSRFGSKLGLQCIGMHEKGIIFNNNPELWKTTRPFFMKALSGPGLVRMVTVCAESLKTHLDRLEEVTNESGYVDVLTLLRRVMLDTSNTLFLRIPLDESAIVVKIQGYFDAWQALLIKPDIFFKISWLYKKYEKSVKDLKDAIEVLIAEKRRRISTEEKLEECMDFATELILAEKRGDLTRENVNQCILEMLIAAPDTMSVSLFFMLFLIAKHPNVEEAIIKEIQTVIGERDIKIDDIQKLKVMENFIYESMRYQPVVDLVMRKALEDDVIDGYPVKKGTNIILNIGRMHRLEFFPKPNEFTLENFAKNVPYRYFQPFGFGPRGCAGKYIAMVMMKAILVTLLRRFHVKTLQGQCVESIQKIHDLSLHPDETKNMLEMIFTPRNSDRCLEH
Method: Aromatase enzyme was purchased from GENTEST, Woburn, MA01801, USA (Supersom human CYP19+oxidoreductase, baculovirus/insect cell-expressed; Product No. 456260). The aromatase inhibitory activity was performed using Human CYP19 enzymes and DBF as a fluorometric substrate as described by Stresser, et al.[41] with minor modifications. The mixture, containing 100 µL of cofactor/serial dilution buffer was pre-incubated in 37 °C for 10 min. […] After incubation at 37 °C for 30 min, the reaction was stopped by addition of 50 µL of 2.2 M NaOH. Fluorescence signal was monitored using an excitation wavelength of 490 nm and emission wavelength of 530 nm.

[1] = read-out: LC50 (the source's name)

IC50 (Human CYP19 (aromatase)): > 12.5 µM
aromatase inhibition (Human CYP19 (aromatase)): inactive against aromatase
SMILES: O=C(N/N=C/c1cc([N+](=O)[O-])c[nH]1)c1[nH]c2ccc(Br)cc2c1-c1ccccc1 [Derivative 3q, (E)-5-Bromo-N′-((4-nitro-1H-pyrrol-2-yl)methylene)-3-phenyl-1H-indole-2-carbohydrazide]
GI50 (CCRF-CEM): 0.799 µM
CC50 (CCRF-CEM; [1]): > 100 µM
GI50 (HL-60 (TB)): 0.633 µM
CC50 (HL-60 (TB); [1]): > 100 µM
GI50 (MOLT-4): 0.657 µM
CC50 (MOLT-4; [1]): > 100 µM
GI50 (RPMI-8226): 3.71 µM
CC50 (RPMI-8226; [1]): > 100 µM
GI50 (NCI-H322M): 46.4 µM
CC50 (NCI-H322M; [1]): > 100 µM
GI50 (NCI-H522): 0.722 µM
CC50 (NCI-H522; [1]): > 100 µM
GI50 (HCC-2998): 3.66 µM
CC50 (HCC-2998; [1]): > 100 µM
GI50 (KM12): 1.39 µM
CC50 (KM12; [1]): > 100 µM
GI50 (SW-620): 0.38 µM
CC50 (SW-620; [1]): > 100 µM
GI50 (SF-268): 0.774 µM
CC50 (SF-268; [1]): > 100 µM
GI50 (SF-295): 0.623 µM
CC50 (SF-295; [1]): > 100 µM
GI50 (SNB-19): 6.25 µM
CC50 (SNB-19; [1]): > 100 µM
GI50 (U251): 0.574 µM
CC50 (U251; [1]): 66.8 µM
GI50 (MALME-3M): 0.83 µM
CC50 (MALME-3M; [1]): > 100 µM
GI50 (SK-MEL-28): 0.89 µM
CC50 (SK-MEL-28; [1]): > 100 µM
GI50 (UACC-257): 2.58 µM
CC50 (UACC-257; [1]): > 100 µM
GI50 (OVCAR-5): 5.37 µM
CC50 (OVCAR-5; [1]): > 100 µM
GI50 (OVCAR-8): 10.2 µM
CC50 (OVCAR-8; [1]): > 100 µM
GI50 (NCI/ADR-RES): 0.434 µM
CC50 (NCI/ADR-RES; [1]): > 100 µM
GI50 (SK-OV-3): 3.14 µM
CC50 (SK-OV-3; [1]): > 100 µM
GI50 (SN12C): 2.58 µM
CC50 (SN12C; [1]): > 100 µM
GI50 (TK-10): 76 µM
CC50 (TK-10; [1]): > 100 µM
GI50 (MDA-MB-231/ATCC): 17.4 µM
CC50 (MDA-MB-231/ATCC; [1]): > 100 µM
GI50 (HS 578T): 0.486 µM
CC50 (HS 578T; [1]): > 100 µM
GI50 (T-47D): 2.21 µM
CC50 (T-47D; [1]): > 100 µM
GI50 (MDA-MB-468): 0.503 µM
CC50 (MDA-MB-468; [1]): > 100 µM
